Laboratory results as given in PubChem BioAssay (NCI).
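At the GI50, growth is halved. Definition used: TGI = concentration required for complete inhibition of growth.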

Legend:
Assay in all cases: DTP human tumour cell line panel, 384-well format
SK-MEL-5 melanoma = system: SK-MEL-5 melanoma
A549 NSCLC = system: A549 NSCLC
ACHN renal = system: ACHN renal
NCI-H23 lung = system: NCI-H23 lung
MCF7 breast = system: MCF7 breast
T-47D breast = system: T-47D breast
SNB-19 CNS = system: SNB-19 CNS
PC-3 prostate = system: PC-3 prostate
OVCAR-4 ovarian = system: OVCAR-4 ovarian
KM12 colon = system: KM12 colon
U251 glioblastoma = system: U251 glioblastoma
A498 renal = system: A498 renal
IGROV1 ovarian = system: IGROV1 ovarian
BT-549 breast = system: BT-549 breast
SF-268 CNS = system: SF-268 CNS
786-0 renal = system: 786-0 renal
HOP-62 NSCLC = system: HOP-62 NSCLC
HS 578T breast = system: HS 578T breast
MDA-MB-435 melanoma = system: MDA-MB-435 melanoma
DU-145 prostate = system: DU-145 prostate
SK-OV-3 ovarian = system: SK-OV-3 ovarian
UO-31 renal = system: UO-31 renal
RPMI-8226 leukemia = system: RPMI-8226 leukemia
SF-295 CNS = system: SF-295 CNS
LOX IMVI melanoma = system: LOX IMVI melanoma
MOLT-4 leukemia = system: MOLT-4 leukemia
NCI-H460 NSCLC = system: NCI-H460 NSCLC
M14 melanoma = system: M14 melanoma
SK-MEL-28 melanoma = system: SK-MEL-28 melanoma
SR leukemia = system: SR leukemia
TK-10 renal = system: TK-10 renal
MDA-MB-468 breast = system: MDA-MB-468 breast
CCRF-CEM leukemia = system: CCRF-CEM leukemia
K-562 leukemia = system: K-562 leukemia
OVCAR-8 ovarian = system: OVCAR-8 ovarian
HOP-92 NSCLC = system: HOP-92 NSCLC
HCT-15 colon = system: HCT-15 colon
EKVX NSCLC = system: EKVX NSCLC
RXF 393 renal = system: RXF 393 renal
CAKI-1 renal = system: CAKI-1 renal
HL-60(TB) leukemia = system: HL-60(TB) leukemia
OVCAR-3 ovarian = system: OVCAR-3 ovarian
SNB-75 CNS = system: SNB-75 CNS
OVCAR-5 ovarian = system: OVCAR-5 ovarian
COLO 205 colon = system: COLO 205 colon
NCI/ADR-RES ovarian = system: NCI/ADR-RES ovarian
SW-620 colon = system: SW-620 colon
HT29 colon = system: HT29 colon
HCT-116 colon = system: HCT-116 colon
SF-539 CNS = system: SF-539 CNS
NCI-H522 lung = system: NCI-H522 lung
SN12C renal = system: SN12C renal
NCI-H226 lung = system: NCI-H226 lung
MDA-MB-231 breast = system: MDA-MB-231 breast
HCC-2998 colon = system: HCC-2998 colon
NCI-H322M lung = system: NCI-H322M lung
MALME-3M melanoma = system: MALME-3M melanoma
UACC-257 melanoma = system: UACC-257 melanoma

In the case of `O=C(Nc1cccc2cccnc12)c1ccc(N2C(=O)[C@@H]3[C@H](C2=O)[C@@H]2C=C[C@H]3C2)cc1`, the GI50 (SK-MEL-5 melanoma) is reported as 18.1 µM, the TGI (SK-MEL-5 melanoma) is reported as 32.7 µM and the GI50 (A549 NSCLC) is reported as 32.2 µM. The TGI (A549 NSCLC) was > 100 µM, the GI50 (ACHN renal) was 45.1 µM and the TGI (ACHN renal) was > 100 µM. For the same compound, the GI50 (NCI-H23 lung) was 16.9 µM, the TGI (NCI-H23 lung) was 42.6 µM and the GI50 (MCF7 breast) was 22.9 µM. The TGI (MCF7 breast) was > 100 µM, the GI50 (T-47D breast) was 13 µM and the TGI (T-47D breast) was 27.1 µM. For the same compound, the GI50 (SNB-19 CNS) was 27.2 µM, the TGI (SNB-19 CNS) was > 100 µM and the GI50 (PC-3 prostate) was 26 µM. For the same compound, the TGI (PC-3 prostate) was 70.4 µM, the GI50 (OVCAR-4 ovarian) was 21.6 µM and the TGI (OVCAR-4 ovarian) was > 100 µM. For the same compound, the GI50 (KM12 colon) was 32.3 µM, the TGI (KM12 colon) was > 100 µM and the GI50 (U251 glioblastoma) was 19.4 µM. The TGI (U251 glioblastoma) was > 100 µM, the GI50 (A498 renal) was 25.9 µM and the TGI (A498 renal) was > 100 µM. The GI50 (IGROV1 ovarian) was 32.5 µM, the TGI (IGROV1 ovarian) was > 100 µM and the GI50 (BT-549 breast) was 12.6 µM. For the same compound, the TGI (BT-549 breast) was 30.5 µM, the GI50 (SF-268 CNS) was 41.2 µM and the TGI (SF-268 CNS) was > 100 µM. It also gave a GI50 ([…]-0 renal) of 21 µM, a TGI (786-0 renal) of 59.9 µM and a GI50 (HOP-62 NSCLC) of 21.7 µM. For the same compound, the TGI (HOP-62 NSCLC) was 74.7 µM, the GI50 (HS 578T breast) was 29.3 µM and the TGI (HS 578T breast) was 93.7 µM. The GI50 (MDA-MB-435 melanoma) was 46.3 µM, the TGI (MDA-MB-435 melanoma) was > 100 µM and the GI50 (DU-145 prostate) was 26.2 µM. The TGI (DU-145 prostate) was > 100 µM, the GI50 (SK-OV-3 ovarian) was 57.2 µM and the TGI (SK-OV-3 ovarian) was > 100 µM. The GI50 (UO-31 renal) was 20.1 µM, the TGI (UO-31 renal) was > 100 µM and the GI50 (RPMI-8226 leukemia) was 21 µM. For the same compound, the TGI (RPMI-8226 leukemia) was 36.5 µM, the GI50 (SF-295 CNS) was 17.7 µM and the TGI (SF-295 CNS) was 57.4 µM. It also gave a GI50 (LOX IMVI melanoma) of 32.5 µM, a TGI (LOX IMVI melanoma) of 89.6 µM and a GI50 (MOLT-4 leukemia) of 16 µM. For the same compound, the TGI (MOLT-4 leukemia) was 29.8 µM, the GI50 (NCI-H460 NSCLC) was 20.5 µM and the TGI (NCI-H460 NSCLC) was 43.5 µM. The GI50 (M14 melanoma) was 43.5 µM, the TGI (M14 melanoma) was > 100 µM and the GI50 (SK-MEL-28 melanoma) was 54.5 µM. The TGI (SK-MEL-28 melanoma) was > 100 µM, the GI50 (SR leukemia) was 13.5 µM and the TGI (SR leukemia) was 32.9 µM. The GI50 (TK-10 renal) was 28.7 µM, the TGI (TK-10 renal) was > 100 µM and the GI50 (MDA-MB-468 breast) was 3.84 µM. For the same compound, the TGI (MDA-MB-468 breast) was 23.6 µM, the GI50 (CCRF-CEM leukemia) was 16.8 µM and the TGI (CCRF-CEM leukemia) was 42.3 µM. The GI50 (K-562 leukemia) was 11.6 µM, the TGI (K-562 leukemia) was 25.9 µM and the GI50 (OVCAR-8 ovarian) was 27.8 µM. The TGI (OVCAR-8 ovarian) was 94.6 µM, the GI50 (HOP-92 NSCLC) was 43.7 µM and the TGI (HOP-92 NSCLC) was > 100 µM. For the same compound, the GI50 (HCT-15 colon) was 26.1 µM, the TGI (HCT-15 colon) was 98.2 µM and the GI50 (EKVX NSCLC) was 25.5 µM. For the same compound, the TGI (EKVX NSCLC) was > 100 µM, the GI50 (RXF 393 renal) was 0.907 µM and the TGI (RXF 393 renal) was 24.6 µM. The GI50 (CAKI-1 renal) was 28.4 µM, the TGI (CAKI-1 renal) was > 100 µM and the GI50 (HL-60(TB) leukemia) was 12.3 µM. The TGI (HL-60(TB) leukemia) was 24.9 µM, the GI50 (OVCAR-3 ovarian) was 25.3 µM and the TGI (OVCAR-3 ovarian) was > 100 µM. The GI50 (SNB-75 CNS) was 30 µM, the TGI (SNB-75 CNS) was 98.5 µM and the GI50 (OVCAR-5 ovarian) was 56.8 µM. For the same compound, the TGI (OVCAR-5 ovarian) was > 100 µM, the GI50 (COLO 205 colon) was 37.6 µM and the TGI (COLO 205 colon) was > 100 µM. It also gave a GI50 (NCI/ADR-RES ovarian) of 12 µM, a TGI (NCI/ADR-RES ovarian) of 26.7 µM and a GI50 (SW-620 colon) of 44.9 µM. For the same compound, the TGI (SW-620 colon) was > 100 µM, the GI50 (HT29 colon) was 14.4 µM and the TGI (HT29 colon) was 29.8 µM. The GI50 (HCT-116 colon) was 38.3 µM, the TGI (HCT-116 colon) was > 100 µM and the GI50 (SF-539 CNS) was 49.1 µM. For the same compound, the TGI (SF-539 CNS) was > 100 µM, the GI50 (NCI-H522 lung) was 16.4 µM and the TGI (NCI-H522 lung) was 32.8 µM. The GI50 (SN12C renal) was 47.8 µM, the TGI (SN12C renal) was > 100 µM and the GI50 (NCI-H226 lung) was 18 µM. The TGI (NCI-H226 lung) was 50 µM, the GI50 (MDA-MB-231 breast) was 36.3 µM and the TGI (MDA-MB-231 breast) was > 100 µM. It also gave a GI50 (HCC-2998 colon) of 20.1 µM, a TGI (HCC-2998 colon) of 41.6 µM and a GI50 (NCI-H322M lung) of 42 µM. The TGI (NCI-H322M lung) was > 100 µM, the GI50 (MALME-3M melanoma) was 27.3 µM and the TGI (MALME-3M melanoma) was 88 µM. The GI50 (UACC-257 melanoma) was 36.2 µM and the TGI (UACC-257 melanoma) was > 100 µM.
